# Laboratory results from patent publication US12157749B2, “Borate-based drug and use thereof” (Chengdu Origin Biotechnology Limited Company, priority 2018, dated 2024).
# Experiments:
# Type in all cases: cell-based
# [1] = test system: human multiple myeloma cells KMS-11; assay: Activity test on human multiple myeloma cells KMS-11 (CCK-8, GI50); settings: KMS-11 cells, 48 h incubation
# Experimental: Cells KMS-11 (human multiple myeloma cells from JCRB ((Japanese Collection of Research Bioresources Cell Bank), AJCRB1179) were cultured to logarithmic growth phase in RPMI 1640 medium containing 10% fetal bovine serum at 37° C. and 5% CO2. The cells were inoculated into a 96-well culture plate in proper quantity per well. After being cultured at 37° C. and 5% CO2 for 24 h, solvent control DMSO or test compounds dissolved in DMSO were added to the cells, wherein the starting concentration of the test compound was 0.3 μM, and diluted 3-fold each time for a total of 6 times to obtain 6 concentration gradients. The cells were incubated with the test compounds at 37° C. and 5% CO2 for 48 h. CCK-8 reagent was added to each well and the cells were incubated at 37° C. for 2 h according to the reagent instructions, and the optical density value of each well was read with spectrophotometer at 450 nm wavelength.
# The optical density value of the cell was set as Tz value when the drug had null action on the cell, which represented the cell value when the drug was added. The optical density value of the cells was set as C value after the cells were acted by solvent control DMSO for 48 h; and the optical density value of the cell was set as Ti value after the cells were acted by the test compounds for 48 h. According to the method proposed by NIH—NCI in the United States, the cell response to drugs was calculated as follows: [(Ti−Tz)/(C−Tz)]×100 when Ti≥Tz; [(Ti−Tz)/Tz]×100 when Ti<Tz. According to the above calculation, the GI50 value (the concentration of the test compound as required when the cell growth inhibition rate was […]) was calculated by using the 4-parameter logistic model in XLfit software.
# [2] = test system: human multiple myeloma cells RPMI-8226; assay: Activity test on human multiple myeloma cells RPMI-8226 (CCK-8, GI50); settings: RPMI 8226 cells, 48 h incubation
# Experimental: (§1) Cells RPMI-8226 (human multiple myeloma cells from ATCC (American type culture collection), ATCC CCL-155) and cells MM.1S (human multiple myeloma cells from ATCC (American type culture collection), ATCC CRL-2974) were cultured to logarithmic growth phase in RPMI 1640 medium containing 10% fetal bovine serum at 37° C. and 5% CO2. The cells were inoculated into 96-well culture plates in proper quantity per well. After culturing at 37° C. and 5% CO2 for 24 h, solvent control DMSO or test compounds dissolved in DMSO were added to the wells, wherein the starting concentration of the test compounds were […], and diluted 3-fold each time for a total of 6 times to obtain 6 concentration gradients. The cells were incubated together with the test compounds at 37° C. and 5% CO2 for 48 h. CCK-8 reagent was added to each well and the cells were incubated at 37° C. for 2 h according to the reagent instructions, and the optical density value of each well was read with spectrophotometer at 450 nm wavelength.
# (§2) The optical density value of the cells was set as Tz value when the drugs had null action on the cell, which represented the cell value when the drugs were added. The optical density values of the cells were set as C value after the cells were acted by solvent control DMSO for 48 h; and the optical density values of the cell were set as Ti value after the cells were acted by the test compounds for 48 h. According to the method proposed by NIH—NCI in the United States, the cells' response to drugs was calculated as follows: [(Ti−Tz)/(C−Tz)]×100 when Ti≥Tz; [(Ti−Tz)/Tz]×100 when Ti<Tz. According to the above calculation, the GI50 value (the concentration of the test compound required when the cell growth inhibition rate was 50%) was calculated by using the 4-parameter logistic model in XLfit software.
# [3] = test system: human multiple myeloma cells MM.1S; assay: Activity test on human multiple myeloma cells MM.1S (CCK-8, GI50); settings: MM1.S, MM.1S cells, 48 h incubation
# Experimental: as §1, §2
Compound,GI50 [1],GI50 [2],GI50 [3]
CC(C)C[C@H](NC(=O)CNC(=O)c1cc(Br)ccc1F)B(O)O,0.0357 µM,,
CC(C)C[C@H](NC(=O)CNC(=O)c1cc(Br)ccc1F)B1OC(=O)c2ccccc2O1,0.0341 µM,,
CC(C)C[C@H](NC(=O)CNC(=O)c1cc(Br)ccc1Cl)B1OC(=O)C(CC(=O)O)(CC(=O)O)O1 [drawing 60],,0.0107 µM,0.0133 µM
CC(C)C[C@H](NC(=O)CNC(=O)c1cc(C(F)(F)F)ccc1F)B1OC(=O)C(CC(=O)O)(CC(=O)O)O1 [drawing 62],,0.0182 µM,0.026 µM
CC(C)C[C@H](NC(=O)CNC(=O)c1cc(Cl)ccc1Cl)B1OC(=O)C(CC(=O)O)(CC(=O)O)O1 [drawing 63],,0.0122 µM,0.0128 µM
CC(C)C[C@H](NC(=O)CNC(=O)c1cc(C(F)(F)F)ccc1F)B1OC(=O)C(CC(=O)O)(CC(=O)O)O1 [drawing 67],0.0578 µM,,
CC(C)C[C@H](NC(=O)CNC(=O)c1cc(Br)ccc1F)B1OC(=O)C(c2ccccc2)O1 (stereo partly shown) [drawing 69],0.0299 µM,,

# Continued, values first:
GI50 [1],GI50 [2],GI50 [3],Compound
0.0905 µM,,,Cc1ccc(F)c(C(=O)NCC(=O)N[C@@H](CC(C)C)B2OC(=O)C(CC(=O)O)(CC(=O)O)O2)c1
0.0878 µM,,,CC(C)C[C@H](NC(=O)CNC(=O)c1cc(F)ccc1F)B1OC(=O)C(CC(=O)O)(CC(=O)O)O1
,0.012 µM,0.0112 µM,CC(C)C[C@H](NC(=O)CNC(=O)c1cc(Br)ccc1F)B1OC(=O)C(CC(=O)O)(CC(=O)O)O1 [drawing 61]
,0.0134 µM,0.012 µM,CC(C)C[C@H](NC(=O)CNC(=O)c1cc(F)ccc1Br)B1OC(=O)C(CC(=O)O)(CC(=O)O)O1 [drawing 64]
0.0397 µM,,,CC(C)C[C@H](NC(=O)CNC(=O)c1cc(Br)ccc1F)B1OC(=O)C(CC(=O)O)(CC(=O)O)O1 [drawing 66]
0.0357 µM,,,CC(C)C[C@H](NC(=O)CNC(=O)c1cc(F)ccc1Br)B1OC(=O)C(CC(=O)O)(CC(=O)O)O1 [drawing 70]
0.059 µM,,,CC(C)C[C@H](NC(=O)CNC(=O)c1cc(Cl)ccc1F)B1OC(=O)C(CC(=O)O)(CC(=O)O)O1 [drawing 71]
